Format in all cases: cell-based
Experiment [1] deals with T1, Smo::EGFP (Homo sapiens, UniProt Q99835).
T1 construct: expressed in transfected cells
The experiment is described as follows: High content assay of Shh-induced Smo::EGFP accumulation in the primary cilium (Smo::EGFP/Ivs::tagRFPT NIH/3T3 cells). To be noted: 3T3/Smo::GFP/Ivs::tagRFPT cells; stimulus Shh; read-out: IC50, inhibition of Shh-induced Smo::GFP ciliary accumulaton. An excerpt:
(§1) NIH/3T3 cells were maintained in DMEM containing 10% (v/v) calf serum, penicillin, streptomycin, and L-glutamine. HEK293, L, cos 7, and suFU−/− mouse embryonic fibroblast cells were maintained in DMEM containing 10% (v/v) fetal bovine serum, penicillin, streptomycin, and L-glutamine. Smo::EGFP, SmoM2::GFP, and Ivs::tagRFPT were cloned into pBabe to generate retroviral particles for infection. Smo::EGFP/Ivs::tagRFPT and SmoM2::GFP/Ivs::tagRFPT stable cell lines were generated through viral infection of NIH/3T3^12. A ShhLightII Gli reporter cell line was obtained from the American Type Culture Collection (ATCC) and used in luciferase reporter assays to measure Hh pathway activity. The cell line contains a stably integrated Gli-responsive Firefly luciferase reporter and a constitutive Renilla luciferase expression construct^33. Subclones expressing Smo or SmoM2 in ShhLightII cells were used for chemical epistasis analyses.
(§2) Cells were cultured and treated in 384-well imaging plate precoated with poly-D-Lysine (Greiner Bio-one), fixed with 4% paraformaldehyde (Electron Microscopy Sciences), and stained with Hoechst (Invitrogen). Images were collected using Opera High Content Screening System (Perkin Elmer). Activityl)ase (IDBS Inc, Emeryvill, Calif.) and Pipeline Pilot (Accelrys, Inc. San Diego, Calif.) were used for high content screening data management and analysis. Acapella 2.0 software (Evotec Technologies/PerkinElmer) was used to perform multi-parametrical high content image quantification. All the images for comparison were scanned with identical microscopic settings and analyzed with the same input parameters.
(§3) Acapella 2.0 software (Evotec Technologies/PerkinElmer) was used to perform multi-parametric high content image quantification. Our image analysis script used Ivs::tagREPT to first determine the location of the PC and then Smo::EGFP to quantify the level of Smo present in the cilium.
The inventors used the spot-finding algorithm in the RFP channel to find Ivs-rich spots. Each non-overlapping spot was based on a maximum 8 pixel-radius (when using a 40× objective) around a central intensity peak of 5 pixels. A distance of at least 10 pixels was required between adjacent spot centers. Spot peaks had to exceed thresholds of relative intensity compared to the remaining body of the spot as well as to the entire image. The average, maximum and total RFP intensity of each spot were measured. The spots with sufficiently high absolute maxima to pass the selected threshold were classified as positive spots. To form candidate cilia, the inventors selected the brightest 15% of the pixels in each positive spot and merged those pixels into objects so that the brightest parts of adjacent spots could form single, larger cilia-shaped objects. To qualify the candidate cilia as true Ivs-positive cilia, the width of the objects created from merging the brightest pixels in each spot had to be at least 2 pixels and the length to half-width ratio had to exceed 3. (i.e. a 3-pixel long by 2-pixel wide cilium was the minimum accepted cilium size and the length had to be at least 1.5 fold of the width). The mean GFP intensity within these Ivs-positive cilia was used to estimate the ciliary level of Smo protein. The inventors subtracted the background of the mean GFP intensity in the 3-pixel wide area around each candidate cilium to avoid some false positives. Those Ivs-positive cilia that exceed the final mean GFP intensity threshold set for each experiment were deemed Smo-positive cilia.
Hoechst staining was used to determine the total number of nuclei per well.
Measurements of the geometry of the cilia as well as the total fluorescent intensities of each cilium in the Smo- and Ivs-channels were used to determine if any of the compounds were having unusual effects on cilia size, intensity or frequency of observation or combinations of all three characteristics.

Experiment [2] has as its target T1, Smo::EGFP. The experiment is described as follows: SAG-induced Smo::GFP ciliary accumulation (3T3/Smo::GFP/Ivs::tagRFPT). Particulars: 3T3/Smo::GFP/Ivs::tagRFPT cells; 100 nM SAG; read-out: IC50, inhibition of SAG-induced Smo::GFP ciliary accumulation. As for the experimental part: as §2, §3
The inventors used the spot-finding algorithm in the RFP channel to find Ivs-rich spots. Each non-overlapping spot was based on a maximum 8 pixel-radius (when using a 40× objective) around a central intensity peak of 5 pixels. A distance of at least 10 pixels was required between adjacent spot centers. […] The average, maximum and total RFP intensity of each spot were measured. […]

Experiment [3] has as its system Hh pathway activation induced by loss of suFU. The experiment is described as follows: Gli-luciferase assay in suFU−/− mouse embryonic fibroblasts. Particulars: suFU−/− cells. As to the method: (§4) Hh activity assays were performed using ShhLightll cells, Smo/Lightll cells, SmoM2/Lightll cells, and suFU−/− mouse embryonic fibroblasts. In the suFU−/− cells, Hh activity was measured after co-transfection with Gli driven firefly luciferase and TK-renilla luciferase reporters^41. Wnt activity was measured in 293 cells co-transfected with Top-flash and TK-renilla luciferase reporters^42. Cells were cultured and treated in 96 well assay plates (Corning) and incubated with Duo-Glo luciferase substrates (Promega) to measure firefly and renilla luciferase activity sequentially using a Top Count NX Microplate Scintillation and Luminescence Counter (Perkin Elmer). The renilla luciferase signal was used to normalize the firefly reporter activity.
(§5) ShhLightII cells and SmoM2/LightII cells were cultured and treated in 96 well assay plates (Corning) and incubated with Duo-Glo luciferase substrates (Promega) to sequentially measure firefly and renilla luciferase activity. […] Wnt activity was measured following co-transfection of a Top-flash and renilla luciferase reporter. […] Luciferase signal was read by TopCount NX Microplate Scintillation and Luminescence Counter (Perkin Elmer). Quantitative PCR probes for Ptch1, Gli1, and β-actin were purchased from Applied Biosystems. […]

Another experiment concerns Hh pathway activity. The experiment is described as follows: SAG-induced Gli-luciferase reporter expression (3T3/Shh-LightII). Particulars: Mus musculus, Shh Light II, 3T3/Shh-LightII cells; 100 nM SAG; read-out: IC50, inhibition of SAG-induced expression of Gli-luciferase reporter. As to the method: as §4, §5
Experiment [4] addresses T1, Smo::EGFP. The experiment is described as follows: Cyc-induced Smo ciliary accumulation (Smo::EGFP/Ivs::tagRFPT cells). Particulars: 5 μM Cyc. As for the experimental part:
as §2, §3

The test system of a further experiment is SmoM2. The experiment is described as follows: Gli-luciferase reporter induced by SmoM2::GFP overexpression (SmoM2/LightII cells).
Excerpt: as §1, §4
ShhLightII cells and SmoM2/LightII cells were cultured and treated in 96 well assay plates (Corning) and incubated with Duo-Glo luciferase substrates (Promega) to sequentially measure firefly and renilla luciferase activity. Smo, or GFP, expression plasmids were co-transfected into 3T3 cells together with a Gli-responsive firefly reporter and a TK-renilla luciferase reporter contruct to monitor effects of Smo overexpression. Co-transfection of the two reporter constructs was conducted in assays measuring Hh pathway activity in suFU−/− cells. Wnt activity was measured following co-transfection of a Top-flash and renilla luciferase reporter. In both Hh and Wnt activity assays, renilla luciferase reporter activity, or mass of protein, was used to normalize expression values. Luciferase signal was read by TopCount NX Microplate Scintillation and Luminescence Counter (Perkin Elmer). Quantitative PCR probes for Ptch1, Gli1, and β-actin were purchased from Applied Biosystems. Reactions and measurements were performed using on an Applied Biosystems 7900HT at Harvard FAS Center of System Biology. β-actin was used to normalize Ptch1 and Gil1 values.

For another experiment, the target named is T2, SmoM2::GFP (Homo sapiens, UniProt Q99835, W535L).
T2 construct: expressed in transfected cells
T2 sequence (Q99835 28-787 W535L): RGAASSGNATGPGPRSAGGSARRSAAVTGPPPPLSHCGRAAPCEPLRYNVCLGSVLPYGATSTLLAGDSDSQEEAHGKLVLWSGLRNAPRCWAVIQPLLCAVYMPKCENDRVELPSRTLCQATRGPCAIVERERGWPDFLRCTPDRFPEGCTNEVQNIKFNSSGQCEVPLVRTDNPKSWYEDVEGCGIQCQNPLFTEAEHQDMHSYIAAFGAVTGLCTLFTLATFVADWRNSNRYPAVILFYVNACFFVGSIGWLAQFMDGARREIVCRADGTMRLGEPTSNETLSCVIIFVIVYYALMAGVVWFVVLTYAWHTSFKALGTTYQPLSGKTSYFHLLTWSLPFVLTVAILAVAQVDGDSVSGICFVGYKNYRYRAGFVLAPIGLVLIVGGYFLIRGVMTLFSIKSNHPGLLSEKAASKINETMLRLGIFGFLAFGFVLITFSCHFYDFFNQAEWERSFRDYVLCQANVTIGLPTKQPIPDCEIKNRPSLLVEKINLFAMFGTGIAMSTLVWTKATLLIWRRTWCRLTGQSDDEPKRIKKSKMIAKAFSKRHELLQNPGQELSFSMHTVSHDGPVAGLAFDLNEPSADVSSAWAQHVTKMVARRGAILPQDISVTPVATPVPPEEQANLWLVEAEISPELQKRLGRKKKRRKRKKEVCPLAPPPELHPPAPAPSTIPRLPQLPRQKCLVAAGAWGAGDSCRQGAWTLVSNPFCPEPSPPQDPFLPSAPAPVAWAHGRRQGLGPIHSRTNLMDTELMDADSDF
The experiment is described as follows: Ciliary localization of SmoM2::GFP (3T3/SmoM2::GFP Overexpression/Ivs::tagRFPT).
Excerpt: as §1, §2, §3

“And” between values parts separate entries of the source, which are not always exact repeats. Equal entries are not always repeated.

T1 sequence (Q99835 28-787): as the sequence (Q99835 28-787 W535L) above, with L508W counted along it

Regarding `CCN(CC)c1ccc(/C=N/NC(=O)c2ccc(O)cc2)cc1` [DY131], the IC50 on Smo::EGFP [1] was 800 nM; on Smo::EGFP [2], ~2000 nM and 2000 nM; in the experiment on Hh pathway activity it was around 2000 nM; with SmoM2 (Mus musculus, Shh Light II, 3T3/SmoM2::GFP Overexpression/Shh-LightII, stimulus none, read-out: IC50, inhibition of expression of Gli-luciferase reporter induced by SmoM2::GFP overexpression) it was above 30 µM; on SmoM2::GFP (3T3/SmoM2::GFP Overexpression/Ivs::tagRFPT, stimulus none, read-out: IC50, inhibition of ciliary localization of SmoM2::GFP), above 30 µM. In addition, the “effect on Hh pathway activation induced by loss of suFU” value in experiment [3] is given as “does not alter”. Further, on Smo::EGFP [4], the “effect on Cyc induced Smo cilial accumulation” value was “effectively compete with Cyc”. In addition, the “effect on SmoM2 driven Hh pathway activity, transcriptional reporter” value in the experiment on SmoM2 (SmoM2 overexpression) was “failed to inhibit”. Further, the “effect on SmoM2 ciliary localization” value at SmoM2::GFP (SmoM2::EGFP overexpressing cells) is “failed to inhibit”.

The record behind these values is patent US20130274233A1, “MODULATORS OF HEDGEHOG SIGNALING PATHWAY” (priority 2012, published 2013).
